Format in all cases: cell-based
One test deals with MCF-7/ERE. The test can be described thus: MCF-7/ERE anti-proliferation assay (ERE-tk-luciferase). The conditions noted are these: Homo sapiens, MCF7; n = 2. On the procedure: Stock solutions (usually, 0.1 M) of the test compounds were prepared in DMSO, and then diluted by 10-100 folds in DMSO, so as to achieve the working solutions with a concentration of 1-10 mM. The stock solutions (in DMSO) were stored at 4° C. (0.1 M) or −20° C. (<0.1 M). MCF-7 cells were passaged twice per week using a growth medium (i.e. a D-MEM/F-12 medium). The cells were kept in a 37° C., aerated flask in an incubator filled with 5% CO2/95% humid air. One day before the treatment, a 96-well titration plate was coated with the cells in the medium, 25000 cells/well, and then cultured at 37° C., overnight.
The cells were transfected with 50 μL/well of 1/10 diluted adenovirus 5-ERE-tk-luciferase in the test medium (i.e. a D-MEM/F-12 medium without phenolsulfonphthalein) for 2 h. Then each well was washed once with 150μλ of the test medium. At last, the cells were divided into several replicates and treated at 37° C. for 24 h, wherein 8 wells were treated with 150μλ/well vehicle (≦0.1% v/v DMSO) or the compound diluted by ≧1000 folds with the test medium.
A primary screen of the test compounds was conducted with a single dose of 1 μM, wherein the test compound was alone (an agonist mode) or in combination with 0.1 nM 17β estradiol (EC80: an antagonist mode). Each 96-well plate also contained a vehicle control group (0.1% v/v DMSO) and an agonist control group (0.1 or 1 nM 17β estradiol). In the agonist and/or antagonist mode, a dose-response experiment was conducted for the active compounds which were increased by logarithm of 10^−14˜10^−5 M. Based on these dose-response curves, EC50 and IC50 values were determined respectively. The final titration wells in each treatment groups contained 5 μL of 3×10^−5 M ICC-182780 (10^−6 M final concentration), as an ER antagonist control.
After the treatment, the cells were lysed in 25 μL/well of 1× cell-culture lytic agent (Promega Corporation) for 15 min. Cell lysate (20 μL) was transferred into a 96-well photometer plate. The luciferase activity was measured with 100 μL/well of the substrate for luciferase (Promega Corporation) in MicroLumat LB 96P photometer (EG&G Berthold). Before adding the substrate, a background measurement was performed for each well for 1 s. After adding the substrate, the luciferase activity was measured after 1 s delay and within 10 s. The data obtained from the photometer were analyzed by JMF software (SAS Institute). Using this program, the background reading of the luciferase activity in each well was subtracted, and then the average and standard deviation were calculated for each group of treatment.
The above luciferase data were subjected to a logarithmic transformation, and the weights of the transformed results which were far away from the median was reduced using Huber M-estimator. The transformed and weighted data were analyzed using JMF software, so as to conduct a one-way ANOVA (D test). The results of the compound treatment groups were compared with that of a vehicle control group in the agonist mode, or with that of a positive agonist control group in the antagonist mode (0.1 nM 17β-estradiol). […] In addition, EC50 and/or IC50 values were determined from a nonlinear dose-response curve using JMF software.

Test [1] has as its system Ovarian Cancer Cells SKOV3. Description: Effect on the proliferation of ovarian cancer cells SKOV3 (MTT). The settings on record: Homo sapiens, SK-OV-3, n = 3. On the procedure: Cells in the logarithmic growth phase were digested with trypsin, added to a 96-well plate, in a density of 6×10^3 cells/well, and cultured in a 37° C., 5% CO2 incubator. The next day, the plated was transferred to and kept in a 4° C. incubator for 1 h after the adherence of most cells, so as to achieve synchronized growth of the cells. The supernatant was sucked out, and a RPMI 1640 medium containing 10% fetal calf serum (FCS) was added, 200 μL/well. The cells were grouped according to the design of the experiment. The injectable solution of the compound prepared with sterile physiological saline was added to the 96 wells, 200 μL/well, so that the concentrate of the medicament in each well were 1 mg/mL, 2 mg/mL and 5 mg/mL, respectively. A concentration of 0 mg/mL was used as a negative control group. After subsequent cultivation for 24, 48, or 72 h, 20 μL MTT solution (with a concentration of 5 mg/mL) was added to each well, respectively. The plate was shaken gently, returned to the incubator and incubated for another 4 h. Then the supernatant was sucked out completely, and 200 μL of dimethyl sulfoxide was added to each well. The plate was shaken for 5-10 min on a shaker. The absorption (A=580) of each well at a wavelength of 580 nm was measured using a microplate reader. The A=580 value was proportional to the number of live cells.

The test system of test [2] is Osteosarcoma Cells U2OS-EGFP-4A12G. Description: Effect on the proliferation of osteosarcoma cells U2OS-EGFP-4A12G (MTT). The settings on record: n = 3. The method, then:
Cells in the logarithmic growth phase were digested with trypsin, counted with trypan blue, and prepared into a cellular suspension with a density of 1×10^4 cells/mL. The suspension was seeded in a 96-well plate, 200 μL/well, about 2×10^3 cells/well, and pre-cultured for 24 h. […] A concentration of 0 mg/mL was used as a negative control group. After subsequent cultivatation for 0 h, 12 h, 24 h or 48 h, 20 μL MTT solution (5 mg/mL) was added to each well. The cultivation was terminated after another 4 h incubation. The supernatant in each well was sucked out carefully, and 150 μL of dimethyl sulfoxide (DMSO) was added to each well. The plate was shaken for 10 min, so that formazan was dissolved thoroughly. The absorption value (A value) of each well was measured using an enzyme linked immunosorbent detector, at a selected wavelength of 490 nm. The measurement was repeated for 5 times.

What is called IC50 is the concentration at which inhibition is half-maximal.

Regarding `O=C(c1ccc(OCC(=O)N2CCOCC2)cc1)c1oc2cc3c(cc2c1-c1ccc(O)cc1)CCCO3` [2-[4-(morpholine-2-oxo-ethoxy)benzoyl]-3-(4-hydroxyphenyl)-6,7-dihydrogen-5H-furo[3,2-g]chromene], in the test with MCF-7/ERE, the IC50 came to 4.9 µM.

For `CCN(CC)CCOc1ccc(C(=O)c2oc3cc4c(cc3c2-c2ccc(O)cc2)CCCO4)cc1` [Example 56, 2-[4-(diethylaminoethoxy)benzoyl]-3-(4-hydroxyphenyl)-6,7-dihydrogen-5H-furo[3,2-g]chromene], the IC50 in test [1] was 17.9 µM; with MCF-7/ERE, 13.5 µM; in test [2] it was 14.9 µM.

On to `CN(C)CCOc1ccc(C(=O)c2oc3cc4c(cc3c2-c2ccc(O)cc2)CCCO4)cc1` [Example 58, 2-[4-(dimethylaminoethoxy)benzoyl]-3-(4-hydroxyphenyl)-6,7-dihydrogen-5H-furo[3,2-g]chromene], for which the half-inhibitory concentration (IC50) in the test on MCF-7/ERE was found to be 22.9 µM.

As to `O=C(c1ccc(OCC(=O)N2CCCCC2)cc1)c1oc2cc3c(cc2c1-c1ccc(O)cc1)CCCO3` [Example 60, 2-[4-(piperidine-2-oxo-ethoxy)benzoyl]-3-(4-hydroxyphenyl)-6,7-dihydrogen-5H-furo[3,2-g]chromene], the IC50 with MCF-7/ERE stood at 5.6 µM.

As for `CCN(CC)C(=O)COc1ccc(C(=O)c2oc3cc4c(cc3c2-c2ccc(O)cc2)CCCO4)cc1` [Example 62, 2-[4-(diethylamino-2-oxo-ethoxy)benzoyl]-3-(4-hydroxyphenyl)-6,7-dihydrogen-5H-furo[3,2-g]chromene], in the test with MCF-7/ERE, the half-inhibitory concentration (IC50) is 42.3 µM.

`CN(C)C(=O)COc1ccc(C(=O)c2oc3cc4c(cc3c2-c2ccc(O)cc2)CCCO4)cc1` [Example 64, 2-[4-(dimethylamino-2-oxo-ethoxy)benzoyl]-3-(4-hydroxyphenyl)-6,7-dihydrogen-5H-furo[3,2-g]chromene]: the IC50 in the test on MCF-7/ERE amounted to 21.8 µM.
